This note sets out measurements from patent US11040937B2, “Amide derivative” (TOHOKU UNIVERSITY, priority 2014, dated 2021).

The test system of this assay is OPN production in A549 cells. Briefly: OPN production in culture supernatant by ELISA, per mg cell protein. Format: cell-based, human. To be noted: for amount of the OPN production vs control group: 2 days, significance level less than 1%. As for the experimental part: Brefelamide (Compound 1) was added to a culture liquid containing cells of human liver cancer-derived cell line HepG2, human non-small cell lung cancer-derived cell line A549, human renal cell carcinoma-derived cell line OUR-10, or human pancreatic cancer-derived cell line QGP-1, and the amount of OPN in the culture supernatant after 2 days was measured using Human Osteopontin Immunoassay kit (R&D systems). The confirmation test was performed by comparison of the OPN amount of Compound 1-treated group with that of DMSO-treated group (control group). In addition, Compounds 6, 19, 26, and 38 which are brefelamide derivatives were added to a culture liquid containing cells of human non-small cell lung cancer-derived cell line A549, and a similar confirmation test to the above-mentioned test was performed.
Compounds 1, 6, 19, 26, and 38 have also a cell growth inhibitory effect. Thus, in order to properly evaluate the inhibitory effect of the compounds on the OPN production, the 1×CCLR solution used in luciferase assay was added to cells remaining in each well after removal of culture supernatant to prepare a cell lysate, and the amount of protein in the cell lysate was measured using BCA Protein Assay Kit (Thermo Scientific). The influence of Compound 1 on the amount of the OPN production was evaluated by comparison of the amount of OPN per milligram of protein.
HepG2 cells or A549 cells were suspended in DMEM medium containing 10% FCS and 1% P/S at 4×10^4 cells/mL to obtain a cell suspension, and the cell suspension was dispensed into each well of a 24-well plate in an amount of 500 μL. In order to perform the test in triplicate, 3 wells were prepared for each control group, and 3 wells were prepared for each test compound-treated group at each concentration. The 24-well Plate was incubated in a CO2 incubator (at 37° C., and 3% CO2) for 24±4 hours.
Compound 1, 6, 19, 26, and 38 which are test compounds were dissolved in DMSO to prepare a 50 mmol/L solution of each compound, and the solutions were stored at −80° C. The solution of Compound 1 was diluted with DMSO to prepare 2.5 mmol/L and 5 mmol/L solutions (FIG. 1), 3.125 mmol/L and 6.25 mmol/L solutions (FIG. 2), 6.25 mmol/L and 12.5 mmol/L solutions (FIG. 3), or 5 mmol/L and 10 mmol/L solutions (FIG. 4). The two solutions of Compound 1 at different concentrations were added in an amount of 2 μL per well to wells in which HepG2, A549, OUR-10, or QGP-1 cells were culture, respectively. Only DMSO was added in an amount of 2 μL to each control well.
Similarly, the 50 mmol/L solution of Compound 6 was stared at −80° C., and the solution was diluted with DMSO to prepare 2.5 mmol/L and 5 mmol/L solutions (FIG. 5). The two solutions of Compound 6 at different concentrations were added in an amount of 2 μL per well to wells in which A549 cells were cultured. Only DMSO was added in an amount of 2 μL to the control well.
Also, the 50 mmol/L solutions of Compounds 19, 26, and 38 were stored at −80° C., and each solution was diluted with DMSO to prepare 3.125 mmol/L and 6.25 mmol/L solutions (FIGS. 8 to 10). The two solutions of Compound 19, 26, or 38 at different concentrations were added in an amount of 2 μL per well to wells in which A549 cells were cultured, respectively. Only DMSO was added in an amount of 2 μL to each control well.
The 24-well plate was shaken to mix the solution in each well, and was then incubated in a CO2 incubator (at 37° C. and 5% CO2) for 48±4 hours. Then, the total amount of the resulting culture supernatant was transferred into a 1.5 mL tube, and D-PBS(−) (500 μL) was added to each well containing cells.
The 24-well plate was gently shaken to remove D-PBS(−), and then 5×CCLR used in luciferase assay was diluted to 5 times with water to prepare 1×CCLR. The prepared 1×CCLR was dispensed into each well in an amount of […]. The 24-well plate was then rocked on a rocking shaker for 15 minutes. […]
(In general: An ELISA detects its analyte on a solid surface through an enzyme-linked reagent.)

[1] abbreviates: concentration increased from 12.5 μmol/L to 25 μmol/L.

`COc1ccc(Oc2cccc(C(=O)CCNC(=O)c3ccc(O)cc3)c2N)cc1` [Compound 6, N-(3-(2-Amino-3-(4-methoxyphenoxy)phenyl)-3-oxopropyl)-4-hydroxybenzamide]: the “amount of the OPN production vs control group” value (“amount … vs control group” for short) (10 μmol/L) was “significantly inhibited” and the “amount … vs control group” value (20 μmol/L) is listed as “significantly inhibited”. The “OPN production, dependence on concentration” value (“OPN production, dependence” for short) (concentration increased from 10 μmol/L to 20 μmol/L) is given as “inhibited depending on the concentration”.
For the compound `Nc1ccc(C(=O)NCCC(=O)c2cccc(Oc3ccc(Cl)cc3)c2N)cc1` [Compound 19, N-(3-(2-Amino-3-(4-chlorophenoxy)phenyl)-3-oxopropyl)-4-aminobenzamide], the “amount … vs control group” value reads like this: (12.5 μmol/L) “significantly inhibited”; (25 μmol/L) “significantly inhibited”. Also, the “OPN production, dependence” value under setting [1] was “inhibited depending on the concentration”.
Take `COc1ccc(Oc2cccc(NC(=O)CCNC(=O)c3ccc(O)cc3)c2)cc1` [Compound 26, N-(3-(3-(4-Methoxyphenoxy)phenylamino)-3-oxopropyl)-4-hydroxybenzamide]: the “OPN production, dependence” value under setting [1] was “inhibited depending on the concentration”.
With `O=C(CCNC(=O)c1ccc(O)cc1)Nc1cccc(Oc2ccc(Cl)c(Cl)c2)c1` [Compound 38, N-(3-(3-(3,4-dichlorophenoxy)phenylamino)-3-oxopropyl)-4-hydroxybenzamide], the “amount … vs control group” value was “significantly inhibited” (12.5 μmol/L) and “significantly inhibited” (25 μmol/L). Also, the “OPN production, dependence” value under setting [1] is listed as “inhibited depending on the concentration”.
